Results from ChEMBL document CHEMBL3991601, “The target landscape of clinical kinase drugs” (Science, 2017).
Active and inactive are the calls of the source.

Key:
[1] = molecular target: T1, Dual specificity mitogen-activated protein kinase kinase 3 (Homo sapiens, UniProt P46734)
T1 sequence (P46734 whole entry): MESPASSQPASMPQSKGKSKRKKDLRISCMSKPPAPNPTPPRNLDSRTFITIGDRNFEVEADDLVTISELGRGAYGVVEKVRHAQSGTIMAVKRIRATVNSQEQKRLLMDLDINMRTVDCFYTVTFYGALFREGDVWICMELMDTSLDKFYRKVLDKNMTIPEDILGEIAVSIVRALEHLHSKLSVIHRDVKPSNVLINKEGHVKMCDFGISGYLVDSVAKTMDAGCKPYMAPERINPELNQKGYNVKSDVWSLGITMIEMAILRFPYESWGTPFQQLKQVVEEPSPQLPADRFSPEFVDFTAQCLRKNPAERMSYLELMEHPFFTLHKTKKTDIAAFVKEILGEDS

[2] = molecular target: Myosin light chain kinase, smooth muscle (Homo sapiens, UniProt Q15746)
[3] = molecular target: Activated CDC42 kinase 1 (Homo sapiens, UniProt Q07912)
[4] = molecular target: T2, Serine/threonine-protein kinase Nek3 (Homo sapiens, UniProt P51956)
T2 sequence (P51956 whole entry): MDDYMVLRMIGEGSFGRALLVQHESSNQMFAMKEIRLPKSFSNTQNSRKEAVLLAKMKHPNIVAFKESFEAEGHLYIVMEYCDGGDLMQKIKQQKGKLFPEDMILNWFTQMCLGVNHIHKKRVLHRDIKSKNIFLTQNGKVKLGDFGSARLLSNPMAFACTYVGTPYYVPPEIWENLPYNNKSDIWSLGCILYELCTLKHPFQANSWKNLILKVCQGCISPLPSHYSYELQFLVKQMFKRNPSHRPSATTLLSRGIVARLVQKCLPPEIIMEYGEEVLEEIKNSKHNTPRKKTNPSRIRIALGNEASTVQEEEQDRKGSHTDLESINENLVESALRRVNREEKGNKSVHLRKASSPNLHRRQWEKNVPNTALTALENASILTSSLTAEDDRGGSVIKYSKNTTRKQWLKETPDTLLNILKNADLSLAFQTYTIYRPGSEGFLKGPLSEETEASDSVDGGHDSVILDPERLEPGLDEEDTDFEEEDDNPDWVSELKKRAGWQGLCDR

[5] = molecular target: Protein kinase C beta type (Homo sapiens, UniProt P05771)
[6] = molecular target: T3, Mitogen-activated protein kinase kinase kinase 3 (Homo sapiens, UniProt Q99759)
T3 sequence (Q99759 whole entry): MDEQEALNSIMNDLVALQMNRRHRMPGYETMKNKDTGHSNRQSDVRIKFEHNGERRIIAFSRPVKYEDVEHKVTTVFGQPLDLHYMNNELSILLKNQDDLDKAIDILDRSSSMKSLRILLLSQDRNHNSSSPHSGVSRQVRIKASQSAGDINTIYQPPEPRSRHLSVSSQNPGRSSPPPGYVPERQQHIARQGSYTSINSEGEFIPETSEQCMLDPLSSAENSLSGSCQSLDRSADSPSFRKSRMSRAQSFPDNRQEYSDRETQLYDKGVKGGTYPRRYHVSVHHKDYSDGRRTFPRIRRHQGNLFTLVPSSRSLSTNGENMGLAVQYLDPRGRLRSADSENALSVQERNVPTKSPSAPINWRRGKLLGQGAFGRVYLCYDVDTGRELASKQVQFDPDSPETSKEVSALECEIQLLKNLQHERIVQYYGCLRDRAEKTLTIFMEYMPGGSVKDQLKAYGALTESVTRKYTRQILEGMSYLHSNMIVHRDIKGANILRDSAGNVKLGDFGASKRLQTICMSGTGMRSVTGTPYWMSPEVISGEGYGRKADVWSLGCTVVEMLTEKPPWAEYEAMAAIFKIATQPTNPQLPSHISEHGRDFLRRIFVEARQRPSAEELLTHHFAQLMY

[7] = molecular target: Serine/threonine-protein kinase PAK 2 (Homo sapiens, UniProt Q13177)
[8] = molecular target: Mitogen-activated protein kinase 11 (Homo sapiens, UniProt Q15759)

Measured: Kd
Further: in the data inactive means no Kd found up to 30 µM.

Sequence of Protein kinase C beta type (P05771 whole entry): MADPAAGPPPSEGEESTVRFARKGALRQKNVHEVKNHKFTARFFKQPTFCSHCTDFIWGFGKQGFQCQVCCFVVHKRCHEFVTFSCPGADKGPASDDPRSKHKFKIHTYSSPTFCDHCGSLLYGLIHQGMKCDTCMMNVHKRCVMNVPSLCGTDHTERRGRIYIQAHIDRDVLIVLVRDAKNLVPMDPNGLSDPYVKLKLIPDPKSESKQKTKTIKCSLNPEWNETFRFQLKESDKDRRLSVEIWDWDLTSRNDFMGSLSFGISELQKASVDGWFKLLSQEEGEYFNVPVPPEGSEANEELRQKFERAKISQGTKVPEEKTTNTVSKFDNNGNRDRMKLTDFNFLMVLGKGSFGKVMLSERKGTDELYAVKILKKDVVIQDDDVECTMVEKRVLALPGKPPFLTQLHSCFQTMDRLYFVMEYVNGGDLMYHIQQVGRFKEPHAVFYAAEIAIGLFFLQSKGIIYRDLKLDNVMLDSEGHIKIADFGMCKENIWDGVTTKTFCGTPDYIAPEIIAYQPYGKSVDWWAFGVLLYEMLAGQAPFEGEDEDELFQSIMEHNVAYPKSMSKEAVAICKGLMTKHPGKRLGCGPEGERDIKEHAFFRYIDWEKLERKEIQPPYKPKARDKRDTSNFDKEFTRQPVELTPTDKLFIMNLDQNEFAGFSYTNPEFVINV
Sequence of Activated CDC42 kinase 1 (Q07912 whole entry): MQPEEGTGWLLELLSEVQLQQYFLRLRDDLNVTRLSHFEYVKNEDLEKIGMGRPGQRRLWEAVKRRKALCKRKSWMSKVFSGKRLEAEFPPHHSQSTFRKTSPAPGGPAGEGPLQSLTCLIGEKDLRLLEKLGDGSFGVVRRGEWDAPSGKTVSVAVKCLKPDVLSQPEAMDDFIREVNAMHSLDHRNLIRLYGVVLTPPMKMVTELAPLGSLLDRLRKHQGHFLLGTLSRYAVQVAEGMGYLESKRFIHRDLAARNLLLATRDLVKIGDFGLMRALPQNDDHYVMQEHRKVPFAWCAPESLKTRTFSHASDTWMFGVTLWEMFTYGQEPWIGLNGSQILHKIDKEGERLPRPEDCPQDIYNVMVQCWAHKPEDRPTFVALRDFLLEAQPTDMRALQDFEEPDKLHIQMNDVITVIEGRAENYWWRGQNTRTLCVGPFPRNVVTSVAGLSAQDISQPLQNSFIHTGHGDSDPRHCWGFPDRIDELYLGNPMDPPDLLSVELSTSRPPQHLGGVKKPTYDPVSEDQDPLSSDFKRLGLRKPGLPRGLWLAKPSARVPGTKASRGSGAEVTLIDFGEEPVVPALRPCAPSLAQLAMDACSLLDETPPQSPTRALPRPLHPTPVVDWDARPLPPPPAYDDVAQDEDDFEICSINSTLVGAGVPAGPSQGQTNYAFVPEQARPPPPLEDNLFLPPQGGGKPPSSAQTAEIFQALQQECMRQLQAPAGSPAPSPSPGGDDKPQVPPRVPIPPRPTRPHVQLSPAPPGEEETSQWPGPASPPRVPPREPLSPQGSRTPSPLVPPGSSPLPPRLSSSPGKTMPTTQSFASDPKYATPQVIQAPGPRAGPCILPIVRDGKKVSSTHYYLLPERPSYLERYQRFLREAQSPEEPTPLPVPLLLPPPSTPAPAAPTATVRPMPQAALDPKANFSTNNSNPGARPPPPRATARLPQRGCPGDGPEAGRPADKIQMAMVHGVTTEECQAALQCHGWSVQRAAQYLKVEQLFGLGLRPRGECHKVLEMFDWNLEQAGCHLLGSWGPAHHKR
Sequence of Myosin light chain kinase, smooth muscle (Q15746 whole entry): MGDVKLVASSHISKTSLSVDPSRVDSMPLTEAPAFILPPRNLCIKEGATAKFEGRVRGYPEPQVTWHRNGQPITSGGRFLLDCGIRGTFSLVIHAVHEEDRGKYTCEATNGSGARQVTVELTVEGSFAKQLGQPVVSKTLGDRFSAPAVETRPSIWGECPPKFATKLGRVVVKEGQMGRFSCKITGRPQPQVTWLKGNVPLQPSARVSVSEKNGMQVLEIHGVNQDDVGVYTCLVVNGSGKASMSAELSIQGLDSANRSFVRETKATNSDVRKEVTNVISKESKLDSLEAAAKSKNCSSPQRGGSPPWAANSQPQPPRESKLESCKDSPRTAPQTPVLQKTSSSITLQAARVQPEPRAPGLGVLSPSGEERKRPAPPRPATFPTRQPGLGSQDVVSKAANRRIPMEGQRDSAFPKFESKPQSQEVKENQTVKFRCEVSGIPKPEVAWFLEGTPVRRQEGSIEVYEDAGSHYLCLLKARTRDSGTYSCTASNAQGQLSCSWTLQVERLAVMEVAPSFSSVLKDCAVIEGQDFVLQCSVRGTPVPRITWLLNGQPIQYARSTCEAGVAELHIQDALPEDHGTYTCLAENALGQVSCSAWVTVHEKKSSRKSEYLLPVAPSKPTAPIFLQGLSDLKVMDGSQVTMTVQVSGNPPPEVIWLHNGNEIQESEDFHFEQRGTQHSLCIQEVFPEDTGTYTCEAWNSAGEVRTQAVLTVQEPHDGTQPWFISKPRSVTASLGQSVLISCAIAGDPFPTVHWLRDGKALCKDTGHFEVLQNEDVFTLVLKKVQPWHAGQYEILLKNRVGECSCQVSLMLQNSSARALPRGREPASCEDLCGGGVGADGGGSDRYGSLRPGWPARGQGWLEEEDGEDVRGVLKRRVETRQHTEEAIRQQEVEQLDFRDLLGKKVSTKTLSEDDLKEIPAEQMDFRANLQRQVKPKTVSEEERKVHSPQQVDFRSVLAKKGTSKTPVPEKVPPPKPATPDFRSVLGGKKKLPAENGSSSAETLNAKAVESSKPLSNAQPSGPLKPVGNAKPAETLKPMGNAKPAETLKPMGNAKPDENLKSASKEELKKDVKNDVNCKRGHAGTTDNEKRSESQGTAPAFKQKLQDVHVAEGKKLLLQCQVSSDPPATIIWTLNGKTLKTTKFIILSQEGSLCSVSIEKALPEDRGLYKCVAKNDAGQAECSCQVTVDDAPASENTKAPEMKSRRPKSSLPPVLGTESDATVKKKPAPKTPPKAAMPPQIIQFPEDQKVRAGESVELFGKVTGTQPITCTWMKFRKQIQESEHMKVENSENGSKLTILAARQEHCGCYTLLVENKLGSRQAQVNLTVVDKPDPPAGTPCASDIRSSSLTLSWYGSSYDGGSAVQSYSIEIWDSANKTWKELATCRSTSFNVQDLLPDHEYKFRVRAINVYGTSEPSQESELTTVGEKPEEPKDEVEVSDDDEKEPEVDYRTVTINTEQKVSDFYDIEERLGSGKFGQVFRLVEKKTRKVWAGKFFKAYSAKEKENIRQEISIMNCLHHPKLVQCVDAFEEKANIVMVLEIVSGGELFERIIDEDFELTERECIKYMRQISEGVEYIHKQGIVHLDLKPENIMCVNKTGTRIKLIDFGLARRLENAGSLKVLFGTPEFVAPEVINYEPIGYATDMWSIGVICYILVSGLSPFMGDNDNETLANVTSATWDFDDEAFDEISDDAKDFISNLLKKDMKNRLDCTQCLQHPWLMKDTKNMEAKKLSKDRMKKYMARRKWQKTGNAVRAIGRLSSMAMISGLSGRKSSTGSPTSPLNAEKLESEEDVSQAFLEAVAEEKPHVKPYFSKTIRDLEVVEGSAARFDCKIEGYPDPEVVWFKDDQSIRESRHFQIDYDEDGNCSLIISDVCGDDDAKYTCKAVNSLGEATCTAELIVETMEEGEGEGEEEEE
Sequence of Serine/threonine-protein kinase PAK 2 (Q13177 whole entry): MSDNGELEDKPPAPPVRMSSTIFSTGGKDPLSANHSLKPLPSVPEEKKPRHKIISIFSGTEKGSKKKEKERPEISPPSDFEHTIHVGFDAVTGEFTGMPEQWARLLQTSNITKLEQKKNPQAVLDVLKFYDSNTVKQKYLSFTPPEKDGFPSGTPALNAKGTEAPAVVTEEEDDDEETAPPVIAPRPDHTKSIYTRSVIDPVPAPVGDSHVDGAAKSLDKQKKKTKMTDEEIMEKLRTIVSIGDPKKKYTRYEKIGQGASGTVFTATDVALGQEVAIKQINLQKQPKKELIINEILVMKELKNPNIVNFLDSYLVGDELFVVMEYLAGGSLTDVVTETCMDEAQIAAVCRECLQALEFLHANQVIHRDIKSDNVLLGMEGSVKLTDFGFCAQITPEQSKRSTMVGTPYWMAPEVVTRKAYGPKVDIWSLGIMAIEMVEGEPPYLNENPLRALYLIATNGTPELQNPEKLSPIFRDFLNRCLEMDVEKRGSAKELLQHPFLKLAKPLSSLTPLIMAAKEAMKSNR
Sequence of Mitogen-activated protein kinase 11 (Q15759 whole entry): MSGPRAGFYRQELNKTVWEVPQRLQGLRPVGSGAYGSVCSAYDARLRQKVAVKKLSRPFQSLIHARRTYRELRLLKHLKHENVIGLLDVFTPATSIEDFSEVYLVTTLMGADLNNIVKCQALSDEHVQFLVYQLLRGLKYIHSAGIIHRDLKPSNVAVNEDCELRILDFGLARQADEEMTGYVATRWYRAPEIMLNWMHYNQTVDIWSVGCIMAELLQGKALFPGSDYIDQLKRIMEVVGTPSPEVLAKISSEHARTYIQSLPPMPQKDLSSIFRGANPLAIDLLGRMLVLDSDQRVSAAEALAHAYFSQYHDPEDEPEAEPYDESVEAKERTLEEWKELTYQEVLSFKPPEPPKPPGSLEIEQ

COc1cc(F)c(F)c(Nc2ccc(I)cc2F)c1NS(=O)(=O)C1(C[C@H](O)CO)CC1 [REFAMETINIB]
inactive: [1] > 30 µM | [2] > 30 µM | [3] > 30 µM | [4] > 30 µM | [5] > 30 µM | [6] > 30 µM | [7] > 30 µM | [8] > 30 µM

COCCN1CCN(Cc2ccc(-c3n[nH]c4c3C(=O)c3c(NC(=O)NN5CCOCC5)cccc3-4)cc2)CC1 [RGB-286638]
inactive: [1] > 30 µM | [2] > 30 µM | [3] > 30 µM | [4] > 30 µM | [5] > 30 µM | [6] > 30 µM | [7] > 30 µM | [8] > 30 µM

O=C(O)c1ccc2c(c1)nc(Nc1cccc(Cl)c1)c1ccncc12 [SILMITASERTIB]
inactive: [1] > 30 µM | [2] > 30 µM | [3] > 30 µM | [4] > 30 µM | [5] > 30 µM | [6] > 30 µM | [7] > 30 µM | [8] > 30 µM

C=CCN(/C=C1/C(=O)O[C@H](COC)[C@@]2(C)C1=C(O)C(=O)C1=C2[C@H](OC(C)=O)C[C@]2(C)C(=O)CC[C@@H]12)CC=C [SONOLISIB]
inactive: [1] > 30 µM | [2] > 30 µM | [3] > 30 µM | [4] > 30 µM | [5] > 30 µM | [6] > 30 µM | [7] > 30 µM | [8] > 30 µM

CC(C)(O)CC(=O)NCCn1ccc2ncnc(Nc3ccc(Oc4cccc(C(F)(F)F)c4)c(Cl)c3)c21 [TAK-285]
inactive: [1] > 30 µM | [2] > 30 µM | [3] > 30 µM | [4] > 30 µM | [5] > 30 µM | [6] > 30 µM | [7] > 30 µM | [8] > 30 µM

Cc1cc(C(=O)Nc2cc(Oc3ccc4nc(NC(=O)C5CC5)cn4n3)ccc2C)n(C)n1 [TAK-593]
inactive: [1] > 30 µM | [2] > 30 µM | [3] > 30 µM | [4] > 30 µM | [5] > 30 µM | [6] > 30 µM | [7] > 30 µM | [8] > 30 µM

Cn1c(=O)c(F)c(Nc2ccc(I)cc2F)c2c(=O)n(C[C@@H](O)CO)cnc21 [TAK-733]
inactive: [1] > 30 µM | [2] > 30 µM | [3] > 30 µM | [4] > 30 µM | [5] > 30 µM | [6] > 30 µM | [7] > 30 µM | [8] > 30 µM

O[C@H]1CC[C@H](Nc2ncc3nc(Nc4c(F)cc(F)cc4F)n([C@H]4CCOC4)c3n2)CC1 [TANZISERTIB]
2.63 µM: [2]
inactive: [1] > 30 µM | [3] > 30 µM | [4] > 30 µM | [5] > 30 µM | [6] > 30 µM | [7] > 30 µM | [8] > 30 µM

CNC(=O)c1cc(COc2nnc(Nc3ccc(Cl)cc3)c3ccoc23)ccn1 [TELATINIB]
inactive: [1] > 30 µM | [2] > 30 µM | [3] > 30 µM | [4] > 30 µM | [5] > 30 µM | [6] > 30 µM | [7] > 30 µM | [8] > 30 µM

Cc1cc(-c2cc(OC(=O)c3ccccc3)ccc2Cl)cc2nnc(Nc3ccc(OCCN4CCCC4)cc3)nc12 [TG100-801]
inactive: [1] > 30 µM | [2] > 30 µM | [3] > 30 µM | [4] > 30 µM | [5] > 30 µM | [6] > 30 µM | [7] > 30 µM | [8] > 30 µM

C[C@@H]1COC(Nc2ccc3ncnc(Nc4ccc(OCc5nccs5)c(Cl)c4)c3c2)=N1 [VARLITINIB]
inactive: [1] > 30 µM | [2] > 30 µM | [3] > 30 µM | [4] > 30 µM | [5] > 30 µM | [6] > 30 µM | [7] > 30 µM | [8] > 30 µM

CNC(=O)c1cccc(-c2ccc3c(N4CCOC[C@@H]4C)nc(N4CCOC[C@@H]4C)nc3n2)c1 [VISTUSERTIB]
inactive: [1] > 30 µM | [2] > 30 µM | [3] > 30 µM | [4] > 30 µM | [5] > 30 µM | [6] > 30 µM | [7] > 30 µM | [8] > 30 µM

COc1cc2ncnc(Nc3ccc(O)cc3)c2cc1OC [WHI-P131]
inactive: [1] > 30 µM | [2] > 30 µM | [3] > 30 µM | [4] > 30 µM | [5] > 30 µM | [6] > 30 µM | [7] > 30 µM | [8] > 30 µM
